Drawing on US20230000870A1, “METHODS OF TREATING CANCER IN BIOMARKER-IDENTIFIED PATIENTS WITH INHIBITORS OF CYCLIN-DEPENDENT KINASE 7 (CDK7)” (Syros Pharmaceuticals, Inc., priority 2019, published 2023), this text covers IC50 for seven compounds.

pIC50: −log10 of the molar value.

Experiment [1] addresses CDK2/Cyclin E1 complex (Homo sapiens, UniProt P24941). Nature of the experiment: CDK2 kinase inhibition assay (Caliper/LabChip EZ Reader). The format is biochemical. The settings on record: CDK2/Cyclin E1 0.5 nM, ATP 2 mM, 35 min at 27° C. An outline of the steps:
(§1)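 Incubation times were set for ~20% (±5%) peptide phosphorylation by uninhibited enzyme: CDK7 35 min, CDK2 35 min (0.5 nM complex, 2 μM 5-FAM-CDK7tide, 2 mM MgCl2), CDK12 3 hr (50 nM, 2 μM 5-FAM-CDK9tide, 2 mM MgCl2), CDK9 15 min (8 nM, 2 μM 5-FAM-CDK9tide, 10 mM MgCl2). Read-out on LabChip EZ Reader, 27° C.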

The target of experiment [2] is CDK7/Cyclin H/MAT1 complex (Homo sapiens, UniProt P50613). Nature of the experiment: CDK7 kinase inhibition assay (Caliper/LabChip EZ Reader). Type of experiment: biochemical. As to conditions: CDK7/Cyclin H/MAT1 6 nM, ATP 2 mM, 35 min at 27° C. The procedure, abridged:
as §1

Experiment [3] deals with CDK9/Cyclin T1 complex (Homo sapiens, UniProt P50750). Nature of the experiment: CDK9 kinase inhibition assay (Caliper/LabChip EZ Reader). As to conditions: CDK9/Cyclin T1 8 nM, ATP 2 mM, 15 min at 27° C. Type of experiment: biochemical. An outline of the steps: as §1
Sequence of CDK9/Cyclin T1 complex (P50750 whole entry, the tested form may be a part): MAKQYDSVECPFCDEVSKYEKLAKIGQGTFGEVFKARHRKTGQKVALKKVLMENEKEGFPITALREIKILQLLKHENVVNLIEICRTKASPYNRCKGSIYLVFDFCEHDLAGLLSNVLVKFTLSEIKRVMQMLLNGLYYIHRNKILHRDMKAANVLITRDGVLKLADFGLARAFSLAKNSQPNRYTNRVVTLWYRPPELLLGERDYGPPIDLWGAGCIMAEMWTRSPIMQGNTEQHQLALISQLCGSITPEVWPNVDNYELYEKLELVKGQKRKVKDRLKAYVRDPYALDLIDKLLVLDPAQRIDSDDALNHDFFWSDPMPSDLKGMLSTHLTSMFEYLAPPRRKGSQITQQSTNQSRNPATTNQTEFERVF
Sequence of CDK9/Cyclin T1 complex (O60563 whole entry partner, the tested form may be a part): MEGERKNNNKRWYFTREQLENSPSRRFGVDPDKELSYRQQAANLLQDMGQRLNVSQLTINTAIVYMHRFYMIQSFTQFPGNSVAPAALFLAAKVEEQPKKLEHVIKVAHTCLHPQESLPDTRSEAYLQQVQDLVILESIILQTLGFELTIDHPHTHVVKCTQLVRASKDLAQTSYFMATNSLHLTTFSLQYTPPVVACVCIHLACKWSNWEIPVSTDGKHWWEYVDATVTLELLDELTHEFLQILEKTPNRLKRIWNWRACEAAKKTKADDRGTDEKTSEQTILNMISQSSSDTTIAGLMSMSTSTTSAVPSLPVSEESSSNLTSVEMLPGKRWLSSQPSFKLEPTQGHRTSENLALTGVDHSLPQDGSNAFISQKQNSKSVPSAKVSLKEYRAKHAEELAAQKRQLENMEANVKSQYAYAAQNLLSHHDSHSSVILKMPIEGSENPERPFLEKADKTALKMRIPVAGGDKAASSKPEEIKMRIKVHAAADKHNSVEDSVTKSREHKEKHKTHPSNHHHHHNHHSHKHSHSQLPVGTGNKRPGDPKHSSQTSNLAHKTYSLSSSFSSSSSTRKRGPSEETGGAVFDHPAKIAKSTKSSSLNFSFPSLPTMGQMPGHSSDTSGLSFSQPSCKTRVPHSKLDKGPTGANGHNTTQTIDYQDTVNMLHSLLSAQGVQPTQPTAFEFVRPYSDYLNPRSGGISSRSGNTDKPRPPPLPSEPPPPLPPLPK
Experiment [4] deals with T1, CDK12 (aa686-1082)/Cyclin K complex (Homo sapiens, UniProt Q9NYV4).
T1 construct: CDK12 (aa686-1082)/Cyclin K complex
T1 sequence (Q9NYV4 686-1082): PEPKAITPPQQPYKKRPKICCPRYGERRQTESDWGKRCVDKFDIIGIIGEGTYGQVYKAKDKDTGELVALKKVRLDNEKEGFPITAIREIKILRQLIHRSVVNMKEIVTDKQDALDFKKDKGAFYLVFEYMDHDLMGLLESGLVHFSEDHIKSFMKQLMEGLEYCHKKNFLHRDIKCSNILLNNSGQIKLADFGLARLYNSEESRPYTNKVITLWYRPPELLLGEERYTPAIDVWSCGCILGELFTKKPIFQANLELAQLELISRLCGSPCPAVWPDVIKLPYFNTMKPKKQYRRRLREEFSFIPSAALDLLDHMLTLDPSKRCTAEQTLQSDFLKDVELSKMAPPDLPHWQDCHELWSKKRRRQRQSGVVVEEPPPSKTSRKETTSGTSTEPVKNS
T1 sequence (O75909 whole entry partner, the tested form may be a part): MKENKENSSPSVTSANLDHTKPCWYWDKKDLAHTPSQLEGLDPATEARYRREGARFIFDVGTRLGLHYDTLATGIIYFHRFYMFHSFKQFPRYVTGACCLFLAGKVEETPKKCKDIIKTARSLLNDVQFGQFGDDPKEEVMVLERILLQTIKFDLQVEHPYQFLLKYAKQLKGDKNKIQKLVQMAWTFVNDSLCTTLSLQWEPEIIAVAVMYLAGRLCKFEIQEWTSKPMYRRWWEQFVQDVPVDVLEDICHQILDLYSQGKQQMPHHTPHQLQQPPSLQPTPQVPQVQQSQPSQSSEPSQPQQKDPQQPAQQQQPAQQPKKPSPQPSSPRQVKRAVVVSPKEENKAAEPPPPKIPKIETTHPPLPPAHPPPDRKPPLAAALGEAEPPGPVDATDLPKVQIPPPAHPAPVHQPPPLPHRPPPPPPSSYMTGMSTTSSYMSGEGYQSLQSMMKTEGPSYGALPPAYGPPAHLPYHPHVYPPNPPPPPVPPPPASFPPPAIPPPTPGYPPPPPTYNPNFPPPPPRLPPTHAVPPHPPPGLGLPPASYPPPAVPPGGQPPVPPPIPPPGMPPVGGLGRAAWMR
Nature of the experiment: CDK12 kinase inhibition assay (Caliper/LabChip EZ Reader). The format is biochemical. The settings on record: CDK12 (aa686-1082)/Cyclin K 50 nM, ATP 2 mM, 3 hr at 27° C. An outline of the steps: as §1

Experiment [5] has as its system A673 cells. Nature of the experiment: Inhibition of proliferation of A673 cells (CyQUANT, 72 hour). The format is cell-based, human. As to conditions: read-out: Inhibition of Proliferation of A673 Cells (calculated IC50). The procedure, abridged:
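Read-out is CyQUANT after a 72 h proliferation period, following the kit protocol. Dilution series in 0.5-log steps over the stated 4 μM to […] range. Cells are A673 (human Ewing's sarcoma), grown in DMEM with 10% FBS and 1 mM sodium pyruvate at 37 °C under 5% CO2.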

For experiment [6], the system named is HCC70 cells. Nature of the experiment: Inhibition of proliferation of HCC70 cells (CyQUANT Direct, 72 hour). Type of experiment: cell-based, human. As to conditions: read-out: Inhibition of Proliferation of HCC70 Cells (calculated IC50). The procedure, abridged: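 Anti-proliferative effect measured with the CyQUANT Direct kit after a 72 h exposure at 37 °C, 5% CO2. Compounds were tested at 0.5 log serial dilutions spanning 4–[…] on HCC70 triple-negative breast cancer cells cultured in RPMI-1640 with 10% FBS.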

Sequence of CDK7/Cyclin H/MAT1 complex (P50613 whole entry): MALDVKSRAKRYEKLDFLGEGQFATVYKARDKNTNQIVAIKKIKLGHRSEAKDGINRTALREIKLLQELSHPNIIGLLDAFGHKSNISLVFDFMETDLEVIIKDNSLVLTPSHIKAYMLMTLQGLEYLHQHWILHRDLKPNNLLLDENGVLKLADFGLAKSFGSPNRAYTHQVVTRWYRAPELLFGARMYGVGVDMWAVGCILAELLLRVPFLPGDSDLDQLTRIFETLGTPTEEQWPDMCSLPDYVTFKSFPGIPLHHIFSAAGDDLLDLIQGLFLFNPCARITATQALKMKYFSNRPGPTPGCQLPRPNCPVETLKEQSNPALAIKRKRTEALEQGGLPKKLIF
Sequence of CDK7/Cyclin H/MAT1 complex (P51946 whole entry partner): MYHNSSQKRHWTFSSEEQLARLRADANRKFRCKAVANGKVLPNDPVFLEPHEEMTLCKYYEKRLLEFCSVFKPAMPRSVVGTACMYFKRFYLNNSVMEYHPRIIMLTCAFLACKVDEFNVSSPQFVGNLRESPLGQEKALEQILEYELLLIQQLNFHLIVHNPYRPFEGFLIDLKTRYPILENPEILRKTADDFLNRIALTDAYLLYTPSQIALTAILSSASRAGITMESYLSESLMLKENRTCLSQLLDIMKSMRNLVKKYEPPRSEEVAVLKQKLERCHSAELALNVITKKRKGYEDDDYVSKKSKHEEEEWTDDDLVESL
Sequence of CDK7/Cyclin H/MAT1 complex (P51948 whole entry partner): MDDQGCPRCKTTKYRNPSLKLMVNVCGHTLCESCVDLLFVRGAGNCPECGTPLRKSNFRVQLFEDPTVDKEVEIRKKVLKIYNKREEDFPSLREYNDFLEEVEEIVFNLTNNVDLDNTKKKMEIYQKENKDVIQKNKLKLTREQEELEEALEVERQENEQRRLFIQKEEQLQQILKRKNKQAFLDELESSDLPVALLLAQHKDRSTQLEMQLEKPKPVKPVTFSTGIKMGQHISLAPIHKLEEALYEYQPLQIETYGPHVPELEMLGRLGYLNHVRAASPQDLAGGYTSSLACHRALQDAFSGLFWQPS

As for `CC1CCNCC1Nc1ncc(C(F)(F)F)c(-c2c[nH]c3ccccc23)n1` (stereo not drawn) [Compound 285], the pIC50 in experiment [1] is ≤ 5.30; in experiment [2], 5.30 to 6.70; in experiment [3], ≤ 5.30; in experiment [4] it was ≤ 5.30; in experiment [5] it was > 7.70; in experiment [6], > 7.00.
Turning to `CCS(=O)(=O)c1cccc2c(-c3nc(N[C@H]4CCCNC4)ncc3C(F)(F)F)c[nH]c12` [Compound 286], the pIC50 in experiment [1] was 5.30 to 6.70; in experiment [2], > 7.70; in experiment [3], 5.30 to 6.70; in experiment [4] it was 5.30 to 6.70; in experiment [5] it was 5.30 to 6.70; in experiment [6] it was 5.30 to 6.00.
Regarding `CCc1cnc(NC2CCCNC2)nc1-c1c[nH]c2nc(C#N)ccc12` (stereo not drawn) [Compound 287], the pIC50 in experiment [1] is ≤ 5.30; in experiment [2], > 7.70; in experiment [3] it was ≤ 5.30; in experiment [4] it was ≤ 5.30; in experiment [5], 6.70 to 7.70; in experiment [6], 6.00 to 7.00.
For the compound `FC(F)n1ccc(-c2ccc3c(-c4nc(NC5CCCNC5)ncc4C(F)(F)F)c[nH]c3c2)n1` (stereo not drawn) [Compound 289], the pIC50 in experiment [1] is 5.30 to 6.70; in experiment [2], 6.70 to 7.70; in experiment [3], 5.30 to 6.70; in experiment [4], 5.30 to 6.70; in experiment [5], 6.70 to 7.70; in experiment [6] it was 6.00 to 7.00.
Consider `FC(F)n1cc(-c2ccc3c(-c4nc(NC5CCCNC5)ncc4C(F)(F)F)c[nH]c3c2)cn1` (stereo not drawn) [Compound 290], for which the pIC50 in experiment [1] is 5.30 to 6.70; in experiment [2], 6.70 to 7.70; in experiment [3] it was 5.30 to 6.70; in experiment [4] it was 5.30 to 6.70; in experiment [5], 6.70 to 7.70; in experiment [6], 6.00 to 7.00.
Take `FC(F)(F)c1cnc(NC2CCCNC2)nc1-c1c[nH]c2cc(-c3cc[nH]n3)ccc12` (stereo not drawn) [Compound 291]: the pIC50 in experiment [1] was 5.30 to 6.70; in experiment [2], > 7.70; in experiment [3] it was 5.30 to 6.70; in experiment [4], 5.30 to 6.70; in experiment [5], 6.70 to 7.70; in experiment [6], 6.00 to 7.00.
Take `N#CC1CCN(C(=O)c2ccc3c(-c4nc(NC5CCCNC5)ncc4C(F)(F)F)c[nH]c3c2)C1` (stereo not drawn) [Compound 292]: the pIC50 in experiment [1] is 5.30 to 6.70; in experiment [2] it was > 7.70; in experiment [3] it was 5.30 to 6.70; in experiment [4], 5.30 to 6.70; in experiment [5], 6.70 to 7.70; in experiment [6], 6.00 to 7.00.
